Data: PMC6916368, “Cell‐Based Optimization of Covalent Reversible Ketoamide Inhibitors Bridging the Unprimed to the Primed Site of the Proteasome β5 Subunit” (Chemmedchem, 2019)

How the values were obtained:
[1] = molecular target: T1, β1c subunit of isolated human 20S proteasome (Homo sapiens, UniProt P28072); test: Proteasome inhibition assay (20 S Proteasome Assay Kit, Z‐LLE‐AMC); assay type: biochemical; conditions: c = 1 µM, n=1; read-out: Inhibition cCP β1
T1 construct: purchased Enzo Life Sciences
Procedure: (§1) Proteasome inhibition assay. […] The 20 S Proteasome Assay Kit for Drug Discovery was used according to the supplier's protocol using Suc‐LLVY‐AMC (β5), Bz‐VGR‐AMC (β2) or Z‐LLE‐AMC (β1) as substrates (Enzo Life Sciences). Single point measurements of residual activity of proteasome activity were performed at a final concentration of 100 nM (n=3, β5c, β5i) or 1 μM (n=1, β1c, β2c, β5c, β5i, SI chapter 2a, Table S1). […] Inhibitors were prepared in 2‐fold concentration (cfinal=100 nM) and added to proteasomes (mfinal=200 ng/well). After 30 min incubation, substrate was added (cfinal=100 μM), incubated for 60 minutes and fluorescence was read using a Tecan M1000 microplate reader. […] IC50 values were determined from technical duplicates as mean value of three independent experiments.

[2] = molecular target: T2, β5i subunit of isolated human 20S proteasome (Homo sapiens, UniProt P28062); test: Proteasome inhibition assay (20 S Proteasome Assay Kit, Suc‐LLVY‐AMC); assay type: biochemical; conditions: for inhibition at 1 µM: c = 1 µM, n=1, read-out: Inhibition iCP β5; for inhibition at 0.1 µM: c=100 nM, read-out: Rel. Inhibition β5i
T2 construct: purchased Enzo Life Sciences
Procedure: as §1

[3] = molecular target: T3, β5c subunit of isolated human 20S proteasome (Homo sapiens, UniProt P28074); test: as above; assay type: biochemical; conditions: for inhibition at 1 µM: c = 1 µM, n=1, read-out: Inhibition cCP β5; for inhibition at 0.1 µM: c=100 nM, read-out: Rel. Inhibition β5c
T3 construct: purchased Enzo Life Sciences
Procedure: as §1

[4] = molecular target: T4, β2c subunit of isolated human 20S proteasome (Homo sapiens, UniProt Q99436); test: Proteasome inhibition assay (20 S Proteasome Assay Kit, Bz‐VGR‐AMC); assay type: biochemical; conditions: c = 1 µM, n=1; read-out: Inhibition cCP β2
T4 construct: purchased Enzo Life Sciences
Procedure: Proteasome inhibition assay. Bortezomib (Selleckchem) and carfilzomib (MedChemExpress) were purchased and used without further purification. The 20 S Proteasome Assay Kit for Drug Discovery was used according to the supplier's protocol using Suc‐LLVY‐AMC (β5), Bz‐VGR‐AMC (β2) or Z‐LLE‐AMC (β1) as substrates (Enzo Life Sciences). Single point measurements of residual activity of proteasome activity were performed at a final concentration of 100 nM (n=3, β5c, β5i) or 1 μM (n=1, β1c, β2c, β5c, β5i, SI chapter 2a, Table S1). […] Inhibitors were prepared in 2‐fold concentration (cfinal=100 nM) and added to proteasomes (mfinal=200 ng/well). After 30 min incubation, substrate was added (cfinal=100 μM), incubated for 60 minutes and fluorescence was read using a Tecan M1000 microplate reader. Dose‐response curves were fitted to the equation Y=100/(1+10^((L°^gIC50−X)*HillSl°^pe)) using GraphPad Prism 7.02. IC50 values were determined from technical duplicates as mean value of three independent experiments.

[5] = tested on: MV4‐11 cells; test: Cell viability endpoint assay (Celltiter Blue, 72 h); assay type: cell-based; conditions: for IC50: Homo sapiens, MV4-11, mean±SD from two independent experiments
Procedure: Cell lines. MV4‐11 (ACC 102), Jurkat (ACC 282) and THP‐1 (ACC 16) cells were obtained from DSMZ and maintained at 37 °C and 5 % CO2 at densities between 0.2–1×10^6 cells per mL in RMPI‐1640 medium supplemented with 10 % FBS, L‐glutamine (2 mM) and penicillin/streptomycin.
Cell viability endpoint assay. For the determination of cytotoxicity of proteasome inhibitors 50.000 cells per well were plated in 90 μl RPMI‐1640 medium supplemented with 0.1 % FBS and incubated overnight at 37 °C and 5 % CO2. Inhibitors were serially diluted in RPMI‐1640 medium as 10‐fold stocks and added to cells giving the final concentration (1 nM to 10 μM, Figure S2–S4) and incubated for 72 h at 37 °C and 5 % CO2. Cell viability was determined using the Celltiter Blue assay (Promega) by adding 20 μl of reagent, incubation for 120 minutes at 37 °C and 5 % CO2 and fluorescent read‐out using a Tecan M1000 microplate reader. Dose‐response curves were fitted to the equation “Y=Bottom+(Top‐Bottom)/(1+10^(X−L°^gIC50))” using GraphPad Prism 7.02. IC50 values are determined from technical triplicates as mean value of two independent experiments. Standard deviations (Table S1) as well as dose response curves (SI chapter 2b) are given in the supplementary information.

inhibition at 1 µM [1]	inhibition at 1 µM [2]	inhibition at 0.1 µM [2]	inhibition at 1 µM [3]	inhibition at 0.1 µM [3]	inhibition at 1 µM [4]	IC50 [5]	IC50 MV4‐11 ([5]; mean±SD from two independent experiments)	Structure (SMILES)
9%	75%	38%	90%	64%	10%	28 ± 5 nM		CC(C)C[C@@H](C=O)NC(=O)[C@H](CC(=O)OC(C)(C)C)NC(=O)[C@H](CC(C)C)NC(=O)c1cc(Cl)ccc1Cl [Compound 25, tert ‐Butyl (S)‐3‐((S)‐2‐(2,5‐dichlorobenzamido)‐4‐methylpentanamido)‐4‐(((S)‐4‐methyl‐1‐oxopen‐tan‐2‐yl)amino)‐4‐oxobutanoate]
28%	28%	11%	43%	6%	-10%	> 1000 nM	inactive	CC(C)C[C@@H](C=O)NC(=O)[C@H](CC(C)C)NC(=O)[C@H](CC(C)C)NC(=O)Cn1cnc2ccccc2c1=O [Compound 22, (S)‐4‐Methyl‐N‐((S)‐4‐methyl‐1‐(((S)‐4‐methyl‐1‐oxopentan‐2‐yl)amino)‐1‐oxopentan‐2‐yl)‐2‐(2‐(4‐oxoquinazolin‐3(4H)‐yl)acetamido)pentanamide]
19%	64%	4%	75%	30%	49%	145 ± 23 nM		CC(C)C[C@@H](C=O)NC(=O)[C@H](CC(C)C)NC(=O)[C@H](CC(C)C)NC(=O)c1cnccn1 [Compound 23, N ‐((S)‐4‐Methyl‐1‐(((S)‐4‐methyl‐1‐(((S)‐4‐methyl‐1‐oxopentan‐2‐yl)amino)‐1‐oxopentan‐2‐yl)amino)‐1‐oxopentan‐2‐yl)pyrazine‐2‐carboxamide]
-12%	7%	18%	59%	28%	2%	76 ± 14 nM		CC(C)C[C@H](NC(=O)OCc1ccccc1)C(=O)N[C@@H](CC(=O)OC(C)(C)C)C(=O)N[C@@H](CC(C)C)C(=O)C(=O)Nc1ccccc1Oc1ccccc1 [Compound 18, tert ‐Butyl‐(S)‐3‐((S)‐2‐(((benzyloxy)carbonyl)amino)‐4‐methylpentanamido)‐4‐(((S)‐5‐methyl‐1,2‐dioxo‐1‐((2‐phenoxyphenyl)amino)hexan‐3‐yl)amino)‐4‐oxobutanoate]

More lines, now with the values behind:

Structure (SMILES)	inhibition at 1 µM [1]	inhibition at 1 µM [2]	inhibition at 0.1 µM [2]	inhibition at 1 µM [3]	inhibition at 0.1 µM [3]	inhibition at 1 µM [4]	IC50 [5]	IC50 MV4‐11 ([5]; mean±SD from two independent experiments)
CC(C)C[C@H](NC(=O)OCc1ccccc1)C(=O)N[C@@H](CC(=O)OC(C)(C)C)C(=O)N[C@@H](CC(C)C)C(=O)C(=O)Nc1ccc(Oc2ccccc2)cc1 [Compound 20, tert ‐Butyl‐(S)‐3‐((S)‐2‐(((benzyloxy)carbonyl)amino)‐4‐methylpentanamido)‐4‐(((S)‐5‐methyl‐1,2‐dioxo‐1‐((4‐phenoxyphenyl)amino)hexan‐3‐yl)amino)‐4‐oxobutanoate]	-24%	22%	40%	38%	41%	-7%	68 ± 9 nM	
Cc1cc(C)c(Oc2ccccc2)cc1NC(=O)C(=O)[C@H](CC(C)C)NC(=O)[C@H](CC(=O)OC(C)(C)C)NC(=O)[C@H](CC(C)C)NC(=O)c1cc(Cl)ccc1Cl [Compound 29, tert ‐Butyl (S)‐3‐((S)‐2‐(2,5‐dichlorobenzamido)‐4‐methylpentanamido)‐4‐(((S)‐1‐((2,4‐dimethyl‐5‐phenoxyphenyl)amino)‐5‐methyl‐1,2‐dioxohexan‐3‐yl)amino)‐4‐oxobuta‐noate]	-19%	-1%	8%	53%	26%	-4%	58 ± 10 nM	
Cc1cc(C)c(Oc2ccccc2)cc1NC(=O)C(=O)[C@H](CC(C)C)NC(=O)[C@H](CC(=O)OC(C)(C)C)NC(=O)[C@H](CC(C)C)NC(=O)OCc1ccccc1 [Compound 21, tert ‐Butyl(S)‐3‐((S)‐2‐(((benzyloxy)carbonyl)amino)‐4‐methylpentanamido)‐4‐(((S)‐1‐((2,4‐dime‐thyl‐5‐phenoxyphenyl)amino)‐5‐methyl‐1,2‐dioxohexan‐3‐yl)amino)‐4‐oxobutanoate]	-4%	17%		52%	33%	11%	297 ± 27 nM	
CC(C)C[C@H](NC(=O)OCc1ccccc1)C(=O)N[C@@H](CC(C)C)C(=O)N[C@@H](CC(C)C)C(=O)C(=O)Nc1ccccc1Oc1ccccc1 [Compound 8, Benzyl‐((S)‐4‐methyl‐1‐(((S)‐4‐methyl‐1‐(((S)‐5‐methyl‐1,2‐dioxo‐1‐((2‐phenoxyphenyl)‐amino)hexan‐3‐yl)amino)‐1‐oxopentan‐2‐yl)amino)‐1‐oxopentan‐2‐yl)carbamate]	-7%	7%	8%	32%	12%	-4%	203 ± 22 nM	
Cc1ccc(NC(=O)C(=O)[C@H](CC(C)C)NC(=O)[C@H](CC(C)C)NC(=O)[C@H](CC(C)C)NC(=O)OCc2ccccc2)c(C)c1Oc1ccccc1 [Compound 12, Benzyl((S)‐1‐(((S)‐1‐(((S)‐1‐((2,4‐dimethyl‐3‐phenoxyphenyl)amino)‐5‐methyl‐1,2‐dioxo‐hexan‐3‐yl)amino)‐4‐methyl‐1‐oxopentan‐2‐yl)amino)‐4‐methyl‐1‐oxopentan‐2‐yl)carbama‐te]	-33%	16%	9%	53%	20%	4%	26 ± 8 nM	
CC(C)C[C@@H](C=O)NC(=O)[C@H](CC(C)C)NC(=O)[C@H](CC(C)C)NC(=O)c1cc(Cl)ccc1Cl [Compound 24, 2,5‐Dichloro‐N‐((S)‐4‐methyl‐1‐(((S)‐4‐methyl‐1‐(((S)‐4‐methyl‐1‐oxopentan‐2‐yl)‐amino)‐1‐oxo‐pentan‐2‐yl)amino)‐1‐oxopentan‐2‐yl)benzamide]	13%	89%	60%	94%	76%	26%	16 ± 1 nM	
